Legend:
Settings in all cases: 48 h
[1] = test system: SEM cells; test: cell viability relative to DMSO control; higher = less cytotoxic
Method in brief: (§1)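 Viability was expressed as a per-plate percentage of DMSO wells, with cell-free wells as background. Leukemia cells (NOMO1 or SEM at 500 cells/well, P12-Ichikawa at 1000 cells/well) were adapted for at least four passages in each medium and seeded in 1536-well plates (5 μl). Library compounds in DMSO were pin-dosed over an 11-point threefold series from 47 μM to 0.79 nM, and CellTiter-Glo One luminescence was read after 48 h at 37°C.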

[2] = test system: NOMO1; test: as above
Method in brief: as §1

[3] = test system: P12-Ichikawa; test: as above
Method in brief: as §1

[4] = test system: SEM cells; test: AUC of viability dose-response curve (% viability x log10 dose units); higher = less sensitive
Method in brief: (§2)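 Viability of medium-adapted leukemia cells was measured by CellTiter-Glo One luminescence after 48 h at 37°C with library compounds in DMSO. Doses were 11 threefold steps from 47 μM to 0.79 nM, in 1536-well plates at 500 or 1000 cells/well. Signals were normalised per plate to DMSO and cell-free wells and fitted with a four-parameter log-logistic model on log10 dose. Area under the curve was integrated by trapezoidal rule, with curves exceeding full viability scaled and failed quality-control curves removed.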

[5] = test system: NOMO1; test: as above
Method in brief: as §2

[6] = test system: P12-Ichikawa; test: as above
Method in brief: as §2

Cc1cnc(-c2cc(N3CCN(C(=O)CC[S+](C)(=O)[O-])CC3)ncc2Cl)c(C)c1
cell viability [%]
Settings	[1]	[2]	[3]
HPLM + 10% dialyzed FBS, 0.000781 µM	103	96.3	117
HPLM + 10% dialyzed FBS, 0.00234 µM	102	125	116
HPLM + 10% dialyzed FBS, 0.00702 µM	118	132	114
HPLM + 10% dialyzed FBS, 0.0211 µM	119	126	130
HPLM + 10% dialyzed FBS, 0.0632 µM	128	132	124
HPLM + 10% dialyzed FBS, 0.19 µM	122	134	131
HPLM + 10% dialyzed FBS, 0.569 µM	124	127	126
HPLM + 10% dialyzed FBS, 1.71 µM	130	129	122
HPLM + 10% dialyzed FBS, 5.12 µM	127	137	130
HPLM + 10% dialyzed FBS, 15.4 µM	125	134	128
HPLM + 10% dialyzed FBS, 46.1 µM	141	191	128
RPMI 5 mM glucose + 10% FBS, 0.000781 µM	115	–	–
RPMI 5 mM glucose + 10% FBS, 0.00234 µM	151	–	–
RPMI 5 mM glucose + 10% FBS, 0.00702 µM	119	–	–
RPMI 5 mM glucose + 10% FBS, 0.0211 µM	116	–	–
RPMI 5 mM glucose + 10% FBS, 0.0632 µM	118	–	–
RPMI 5 mM glucose + 10% FBS, 0.19 µM	136	–	–
RPMI 5 mM glucose + 10% FBS, 0.569 µM	135	–	–
RPMI 5 mM glucose + 10% FBS, 1.71 µM	140	–	–
RPMI 5 mM glucose + 10% FBS, 5.12 µM	140	–	–
RPMI 5 mM glucose + 10% FBS, 15.4 µM	142	–	–
RPMI 5 mM glucose + 10% FBS, 46.1 µM	136	–	–
RPMI 5 mM glucose + 10% dialyzed FBS, 0.000781 µM	112	–	–
RPMI 5 mM glucose + 10% dialyzed FBS, 0.00234 µM	115	–	–
RPMI 5 mM glucose + 10% dialyzed FBS, 0.00702 µM	107	–	–
RPMI 5 mM glucose + 10% dialyzed FBS, 0.0211 µM	133	–	–
RPMI 5 mM glucose + 10% dialyzed FBS, 0.0632 µM	125	–	–
RPMI 5 mM glucose + 10% dialyzed FBS, 0.19 µM	132	–	–
RPMI 5 mM glucose + 10% dialyzed FBS, 0.569 µM	124	–	–
RPMI 5 mM glucose + 10% dialyzed FBS, 1.71 µM	141	–	–
RPMI 5 mM glucose + 10% dialyzed FBS, 5.12 µM	155	–	–
RPMI 5 mM glucose + 10% dialyzed FBS, 15.4 µM	143	–	–
RPMI 5 mM glucose + 10% dialyzed FBS, 46.1 µM	139	–	–

AUC of viability dose-response curve
Settings	[4]	[5]	[6]
HPLM + 10% dialyzed FBS	426	404	466
RPMI 5 mM glucose + 10% FBS	453	470	475
RPMI 5 mM glucose + 10% dialyzed FBS	427	455	469

CN1C[C@H]2c3ccccc3Oc3ccc(Cl)cc3[C@@H]2C1
cell viability [%]
Settings	[1]	[2]	[3]
HPLM + 10% dialyzed FBS, 0.000781 µM	75.4	78.1	88.5
HPLM + 10% dialyzed FBS, 0.00234 µM	76	106	86.3
HPLM + 10% dialyzed FBS, 0.00702 µM	68	93.5	83.8
HPLM + 10% dialyzed FBS, 0.0211 µM	76.3	92.7	90.2
HPLM + 10% dialyzed FBS, 0.0632 µM	80.2	85.6	89.7
HPLM + 10% dialyzed FBS, 0.19 µM	84	90	96.8
HPLM + 10% dialyzed FBS, 0.569 µM	94.5	106	92.5
HPLM + 10% dialyzed FBS, 1.71 µM	90	96	96
HPLM + 10% dialyzed FBS, 5.12 µM	96.3	90.5	91.4
HPLM + 10% dialyzed FBS, 15.4 µM	85	93.8	93
HPLM + 10% dialyzed FBS, 46.1 µM	6.31	82.1	95.8
RPMI 5 mM glucose + 10% FBS, 0.000781 µM	89.6	75.8	96.9
RPMI 5 mM glucose + 10% FBS, 0.00234 µM	80.8	93.6	94.5
RPMI 5 mM glucose + 10% FBS, 0.00702 µM	90.6	88.7	95.6
RPMI 5 mM glucose + 10% FBS, 0.0211 µM	86.7	90.4	97.8
RPMI 5 mM glucose + 10% FBS, 0.0632 µM	71.4	91.3	88.4
RPMI 5 mM glucose + 10% FBS, 0.19 µM	91.7	83.3	95.4
RPMI 5 mM glucose + 10% FBS, 0.569 µM	92.4	80.7	98.2
RPMI 5 mM glucose + 10% FBS, 1.71 µM	90.6	88.2	99
RPMI 5 mM glucose + 10% FBS, 5.12 µM	95.8	80.4	96.7
RPMI 5 mM glucose + 10% FBS, 15.4 µM	79.3	87.3	103
RPMI 5 mM glucose + 10% FBS, 46.1 µM	5.32	85.6	101
RPMI 5 mM glucose + 10% dialyzed FBS, 0.000781 µM	73.5	85.8	87.6
RPMI 5 mM glucose + 10% dialyzed FBS, 0.00234 µM	83.7	86.1	89.7
RPMI 5 mM glucose + 10% dialyzed FBS, 0.00702 µM	76.6	85.4	82.3
RPMI 5 mM glucose + 10% dialyzed FBS, 0.0211 µM	83.3	94.2	87.6
RPMI 5 mM glucose + 10% dialyzed FBS, 0.0632 µM	73.5	87.4	87.5
RPMI 5 mM glucose + 10% dialyzed FBS, 0.19 µM	105	95.2	96.6
RPMI 5 mM glucose + 10% dialyzed FBS, 0.569 µM	107	85.2	87
RPMI 5 mM glucose + 10% dialyzed FBS, 1.71 µM	103	83.9	84.5
RPMI 5 mM glucose + 10% dialyzed FBS, 5.12 µM	85.3	93	80
RPMI 5 mM glucose + 10% dialyzed FBS, 15.4 µM	79.1	82.1	84.3
RPMI 5 mM glucose + 10% dialyzed FBS, 46.1 µM	6.04	85.3	78.1

AUC of viability dose-response curve
Settings	[4]	[5]	[6]
HPLM + 10% dialyzed FBS	372	440	436
RPMI 5 mM glucose + 10% FBS	395	410	462
RPMI 5 mM glucose + 10% dialyzed FBS	396	418	410

Source: the supplement of paper PMC11451515
